The numbers were not newly measured in patent US20230055121A1, “AQUEOUS SUSPENSION COMPOSITION CONTAINING SIROLIMUS OR SALT THEREOF” (SANTEN PHARMACEUTICAL CO., LTD., priority 2019, published 2023), which cites them from elsewhere.

With Sirolimus, the Solubility in water result is “almost insoluble in water”.
